Results published in US20240209053A1 (Protagonist Therapeutics, Inc., priority 2021, published 2024).
Numbered stars: 1 amine (or outer) side, 2 acyl side, 3 side chain; on linkers, the order of the positions; unused ones are H or OH. Bridge positions count the residues as written; N and C are the ends. Square brackets hold non-standard residues; d marks the D form. Side chains are listed from the residue outwards. Peptide text beside a SMILES is read from it. * marks the point of attachment. Dip = N[C@H](C(=O)O)C(c1ccccc1)c1ccccc1; Hag = O=C([C@H](CCC=[*:3])N[*:1])[*:2]; Palmitoyl = CCCCCCCCCCCCCCCC(=O)*; tBuAla = CC(C)(C)C[C@H](N)C(=O)O; β3hF = N[C@H](CC(=O)O)Cc1ccccc1; AllylGly = C=CC[C@H](N)C(=O)O; Isovaleryl = CC(C)CC(=O)*; Ahx = NCCCCCC(=O)O; GABA = NCCCC(=O)O

What follows are molecules tested against T1, human ferroportin (SLC40A1) (Homo sapiens, UniProt Q9NP59) (assay: FPN activity assay: internalization/degradation of ferroportin-GFP in stably transfected HEK293 cells (decrease in GFP fluorescence)). Settings: compound incubated at least 18 hours.
T1 sequence (Q9NP59 1-571): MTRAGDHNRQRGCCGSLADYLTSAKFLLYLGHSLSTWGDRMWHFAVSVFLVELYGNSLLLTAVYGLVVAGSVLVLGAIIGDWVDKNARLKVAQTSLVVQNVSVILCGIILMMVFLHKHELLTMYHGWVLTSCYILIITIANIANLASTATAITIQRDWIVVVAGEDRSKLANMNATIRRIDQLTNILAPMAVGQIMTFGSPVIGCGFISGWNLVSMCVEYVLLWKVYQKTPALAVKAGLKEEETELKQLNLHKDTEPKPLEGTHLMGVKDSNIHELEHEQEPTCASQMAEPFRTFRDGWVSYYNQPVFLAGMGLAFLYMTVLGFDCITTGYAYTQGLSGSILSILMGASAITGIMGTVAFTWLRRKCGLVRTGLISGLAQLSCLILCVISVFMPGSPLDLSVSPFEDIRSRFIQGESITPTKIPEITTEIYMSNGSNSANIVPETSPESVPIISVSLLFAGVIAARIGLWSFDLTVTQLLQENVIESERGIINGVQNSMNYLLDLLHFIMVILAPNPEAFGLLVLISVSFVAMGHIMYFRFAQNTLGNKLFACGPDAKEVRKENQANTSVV
Assay type: cell-based
Procedure: Peptide analogues were tested in vitro for induction of internalization of the human ferroportin protein. Following internalization, the ferroporin protein is degraded. The assay used (FPN activity assay) measures a decrease in fluorescence of the receptor. The cDNA encoding the human ferroportin (SLC40A1) was cloned from a cDNA clone from Origene (NM_014585). The DNA encoding the ferroportin was amplified by PCR using primers also encoding terminal restriction sites for subcloning, but without the termination codon. The ferroportin receptor was subcloned into a mammalian GFP expression vector containing a neomycin (G418) resistance marker in such that the reading frame of the ferroportin was fused in frame with the GFP protein. The fidelity of the DNA encoding the protein was confirmed by DNA sequencing. HEK293 cells were used for transfection of the ferroportin-GFP receptor expression plasmid. The cells were grown according to standard protocol in growth medium and transfected with the plasmids using Lipofectamine (manufacturer's protocol, Invitrogen). The cells stably expressing ferroportin-GFP were selected using G418 in the growth medium (in that only cells that have taken up and incorporated the cDNA expression plasmid survive) and sorted several times on a Cytomation MoFloTM cell sorter to obtain the GFP-positive cells (488 nm/530 nm). The cells were propagated and frozen in aliquots. […] Compound was added to desired final concentration for at least 18 hours in the incubator. […] Compound was added to desired final concentration for at least 18 hours but no more than 24 hours in the incubator. […] The “RI” in RI-Mini-Hepcidin refers to Retro Inverse. A retro inverse peptide is a peptide with a reversed sequence in all D amino acids. An example is that […] becomes […]. The EC50 of these reference compounds for ferroportin internalization/degradation was determined according to the FPN activity assay described above. These peptides served as control standards.

IC50 | SMILES
> 500 nM | CCCCCCCCCCCCCCCC(=O)NCCCCCC(=O)NCCCC[C@@H]1NC(=O)[C@@H]2CCCN2C(=O)[C@H](C(c2ccccc2)c2ccccc2)NC(=O)[C@H](Cc2c[nH]cn2)NC(=O)[C@H]([C@@H](C)O)NC(=O)[C@@H](NC(=O)CC(C)C)CCC=CCC[C@@H](C(=O)N[C@H](CC(=O)N[C@H](CCCCN)C(N)=O)Cc2ccccc2)NC1=O (single isomer, unassigned) [Compd 38]
> 500 nM | CCCCCCCCCCCCCCCC(=O)NCCCCCC(=O)NCCCC[C@H](NC(=O)C[C@H](Cc1ccccc1)NC(=O)[C@@H]1CCC=CCC[C@H](NC(=O)CC(C)C)C(=O)N[C@@H]([C@@H](C)O)C(=O)N[C@@H](CC(C)(C)C)C(=O)N[C@@H](C(c2ccccc2)c2ccccc2)C(=O)N2CCC[C@H]2C(=O)N[C@@H](C)C(=O)N[C@@H]([C@@H](C)CC)C(=O)N1)C(=O)N[C@H](CCCCN)C(N)=O [Compd 59] (Isovaleryl-[Hag]T[tBuAla][Dip]PAI[Hag][β3hF]K([Ahx-Palmitoyl])[dK]-NH2; staple 1-8)
> 500 nM | CCCCCCCCCCCCCCCC(=O)NCCCCCC(=O)NCCCC[C@H](NC(=O)C[C@H](Cc1ccccc1)NC(=O)[C@@H]1CCC=CCC[C@H](NC(=O)CC(C)C)C(=O)N[C@@H]([C@@H](C)O)C(=O)N[C@@H](Cc2c[nH]cn2)C(=O)N[C@@H](C(c2ccccc2)c2ccccc2)C(=O)N2CCC[C@H]2C(=O)N[C@@H]([C@@H](C)CC)C(=O)N1)C(N)=O [Compd 19] (Isovaleryl-[Hag]TH[Dip]PI[Hag][β3hF]K([Ahx-Palmitoyl])-NH2; staple 1-7)
> 500 nM | CCCCCCCCCCCCCCCC(=O)NCCCCCC(=O)NCCCC[C@H](NC(=O)C[C@H](Cc1ccccc1)NC(=O)[C@@H](CCCCN)NC(=O)[C@@H](NC(=O)[C@@H]1CCC=CC[C@H](NC(=O)[C@H](Cc2c[nH]cn2)NC(=O)[C@@H](NC(=O)[C@H](CCC(=O)O)NC(=O)CC(C)C)[C@@H](C)O)C(=O)N2CCC[C@H]2C(=O)N1)[C@@H](C)CC)C(=O)N[C@H](CCCCN)C(N)=O [Compd 4] (Isovaleryl-ETH[AllylGly]P[Hag]I[dK][β3hF]K([Ahx-Palmitoyl])[dK]-NH2; staple 4-6)
10 to 100 nM | CCCCCCCCCCCCCCCC(=O)NCCCCCC(=O)NCCCC[C@H](NC(=O)C[C@H](Cc1ccccc1)NC(=O)[C@@H]1CCC=CCC[C@H](NC(=O)CC(C)C)C(=O)N[C@@H]([C@@H](C)O)C(=O)N[C@@H](Cc2c[nH]cn2)C(=O)N[C@@H](C(c2ccccc2)c2ccccc2)C(=O)N[C@@H](C)C(=O)N[C@@H](C)C(=O)N[C@@H]([C@@H](C)CC)C(=O)N1)C(=O)N[C@H](CCCCN)C(N)=O [Compd 44] (Isovaleryl-[Hag]TH[Dip]AAI[Hag][β3hF]K([Ahx-Palmitoyl])[dK]-NH2; staple 1-8)
100 to 500 nM | CCCCCCCCCCCCCCCC(=O)NCCCCCC(=O)NCCCC[C@@H]1NC(=O)C[C@H](Cc2ccccc2)NC(=O)[C@@H](CCCCN)NC(=O)[C@H]([C@@H](C)CC)NC(=O)[C@H](C)NC(=O)[C@@H]2CCCN2C(=O)[C@H](C(c2ccccc2)c2ccccc2)NC(=O)[C@H](Cc2c[nH]cn2)NC(=O)[C@H]([C@@H](C)O)NC(=O)[C@@H](NC(=O)CC(C)C)CCC=CCC[C@@H](C(N)=O)NC1=O [Compd 84] (Isovaleryl-[Hag]TH[Dip]PAI[dK][β3hF]K([Ahx-Palmitoyl])[Hag]-NH2; staple 1-11)
> 500 nM | CCCCCCCCCCCCCCCC(=O)NCCCCCC(=O)NCCCC[C@H](NC(=O)C[C@H](Cc1ccccc1)NC(=O)[C@@H]1CCC=CCC[C@H](NC(=O)CC(C)C)C(=O)N[C@@H]([C@@H](C)O)C(=O)N[C@@H](Cc2c[nH]cn2)C(=O)N[C@@H](C)C(=O)N2CCC[C@H]2C(=O)N[C@@H](C)C(=O)N[C@@H]([C@@H](C)CC)C(=O)N1)C(=O)N[C@H](CCCCN)C(N)=O [Compd 43] (Isovaleryl-[Hag]THAPAI[Hag][β3hF]K([Ahx-Palmitoyl])[dK]-NH2; staple 1-8)
> 500 nM | CCCCCCCCCCCCCCCC(=O)NCCCCCC(=O)NCCCC[C@H](NC(=O)C[C@H](Cc1ccccc1)NC(=O)[C@@H](CCCCN)NC(=O)[C@@H](NC(=O)[C@@H]1CCC=CCC[C@H](NC(=O)[C@@H](NC(=O)[C@H](Cc2c[nH]cn2)NC(=O)[C@@H](NC(=O)[C@H](CCC(=O)O)NC(=O)CC(C)C)[C@@H](C)O)C(c2ccccc2)c2ccccc2)C(=O)N1)[C@@H](C)CC)C(=O)N[C@H](CCCCN)C(N)=O [Compd 11]
> 500 nM | CCCCCCCCCCCCCCCC(=O)NCCCCCC(=O)NCCCC[C@H](NC(=O)C[C@H](Cc1ccccc1)NC(=O)[C@@H]1CCC=CCC[C@H](NC(=O)CC(C)C)C(=O)N[C@@H](CC(C)(C)C)C(=O)N[C@@H](Cc2c[nH]cn2)C(=O)N[C@@H](C(c2ccccc2)c2ccccc2)C(=O)N2CCC[C@H]2C(=O)N[C@@H](C)C(=O)N[C@@H]([C@@H](C)CC)C(=O)N1)C(=O)N[C@H](CCCCN)C(N)=O [Compd 58] (Isovaleryl-[Hag][tBuAla]H[Dip]PAI[Hag][β3hF]K([Ahx-Palmitoyl])[dK]-NH2; staple 1-8)
> 500 nM | CCCCCCCCCCCCCCCC(=O)NCCCCCC(=O)NCCCC[C@H](NC(=O)[C@@H]1CCC=CCC[C@H](NC(=O)CC(C)C)C(=O)N[C@@H]([C@@H](C)O)C(=O)N[C@@H](Cc2c[nH]cn2)C(=O)N[C@@H](C(c2ccccc2)c2ccccc2)C(=O)N2CCC[C@H]2C(=O)N1)C(N)=O [Compd 21] (Isovaleryl-[Hag]TH[Dip]P[Hag]K([Ahx-Palmitoyl])-NH2; staple 1-6)
> 500 nM | CCCCCCCCCCCCCCCC(=O)NCCCCCC(=O)NCCCC[C@H](NC(=O)C[C@H](Cc1ccccc1)NC(=O)[C@@H]1CCC=CCC[C@H](NC(=O)CC(C)C)C(=O)N[C@@H]([C@@H](C)O)C(=O)N[C@@H](Cc2c[nH]cn2)C(=O)N[C@@H](C(c2ccccc2)c2ccccc2)C(=O)N2CCC[C@H]2C(=O)N1)C(N)=O (single isomer, unassigned) [Compd 20]
10 to 100 nM | CCCCCCCCCCCCCCCC(=O)NCCCCCC(=O)NCCCC[C@H](NC(=O)C[C@H](Cc1ccccc1)NC(=O)[C@@H]1CCC=CCC[C@H](NC(=O)CC(C)C)C(=O)N[C@@H]([C@@H](C)O)C(=O)N[C@@H](Cc2c[nH]cn2)C(=O)N[C@@H](C(c2ccccc2)c2ccccc2)C(=O)N2CCC[C@H]2C(=O)NCCCC(=O)N1)C(=O)N[C@H](CCCCN)C(N)=O [Compd 66] (Isovaleryl-[Hag]TH[Dip]P[GABA][Hag][β3hF]K([Ahx-Palmitoyl])[dK]-NH2; staple 1-7)
10 to 100 nM | CCCCCCCCCCCCCCCC(=O)NCCCCCC(=O)NCCCC[C@H](NC(=O)C[C@H](Cc1ccccc1)NC(=O)[C@@H]1CCC=CCC[C@H](NC(=O)CC(C)C)C(=O)N[C@@H]([C@@H](C)O)C(=O)N[C@@H](Cc2c[nH]cn2)C(=O)N[C@@H](CC(C)(C)C)C(=O)N2CCC[C@H]2C(=O)N[C@@H](C)C(=O)N[C@@H]([C@@H](C)CC)C(=O)N1)C(=O)N[C@H](CCCCN)C(N)=O [Compd 60]
> 500 nM | CCCCCCCCCCCCCCCC(=O)NCCCCCC(=O)NCCCC[C@H](NC(=O)C[C@H](Cc1ccccc1)NC(=O)[C@@H]1CCC=CCC[C@H](NC(=O)CC(C)C)C(=O)N[C@@H]([C@@H](C)O)C(=O)N[C@@H](Cc2c[nH]cn2)C(=O)N[C@@H](C(c2ccccc2)c2ccccc2)C(=O)N2CCC[C@H]2C(=O)N1)C(N)=O (single isomer, unassigned) [Compd 86]
> 500 nM | CCCCCCCCCCCCCCCC(=O)NCCCCCC(=O)NCCCC[C@@H]1NC(=O)[C@@H]2CCCN2C(=O)[C@H](C(c2ccccc2)c2ccccc2)NC(=O)[C@H](Cc2c[nH]cn2)NC(=O)[C@H]([C@@H](C)O)NC(=O)[C@@H](NC(=O)CC(C)C)CCC=CCC[C@@H](C(=O)N[C@H](CC(=O)N[C@H](CCCCN)C(N)=O)Cc2ccccc2)NC1=O (single isomer, unassigned) [Compd 40]
> 500 nM | CCCCCCCCCCCCCCCC(=O)NCCCCCC(=O)NCCCC[C@H](NC(=O)C[C@H](Cc1ccccc1)NC(=O)[C@@H](CCCCN)NC(=O)[C@@H](NC(=O)[C@@H]1CCCCC[C@H](NC(=O)[C@H](Cc2c[nH]cn2)NC(=O)[C@@H](NC(=O)[C@H](CCC(=O)O)NC(=O)CC(C)C)[C@@H](C)O)C(=O)N2CCC[C@H]2C(=O)N1)[C@@H](C)CC)C(=O)N[C@H](CCCCN)C(N)=O [Compd 7]
